Measurements taken from US10336732B2, “1-heterocyclyl isochromanyl compounds and analogs for treating CNS disorders” (Sunovion Pharmaceuticals Inc., priority 2015, dated 2019).

These compounds were tested on mice (assay: Neuropharmacological assay (SmartCube), behavioral signature of compound-treated mice). Conditions: i.p. 15 min before behavioral test, most efficacious dose(s) of 3 doses.
Format: in vivo
Method in brief: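 Mice received compound i.p. in NMP/PEG/propylene glycol vehicle at 3 doses, 15 min before testing. Video-captured behavior was algorithmically compared with a reference-drug signature database.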
In the case of `Cc1ccc2c(c1)[C@@H]([C@@H]1CCCN1)OCC2` [Compound I-26, (S)-2-((S)-7-methylisochroman-1-yl)pyrrolidine], the “AD: ADHD (probability that behavioral signature matches class)” value (“AD: ADHD” for short) is reported as “+ (LOQ ≤ + <5%)”, the “AG: analgesic (probability that behavioral signature matches class)” value (“AG: analgesic” for short) is reported as “+ (LOQ ≤ + <5%)” and the “AX: anxiolytic (probability that behavioral signature matches class)” value (from here on “AX: anxiolytic”) is reported as “++ (5% ≤ ++ <25%)”. For the same compound, the “CE: cognitive enhancer (probability that behavioral signature matches class)” value (shortened to “CE: cognitive enhancer”) was “+ (LOQ ≤ + <5%)”, the “DP: anti-depressant (probability that behavioral signature matches class)” value (“DP: anti-depressant” below) was “+ (LOQ ≤ + <5%)” and the “HA: hallucinogen (probability that behavioral signature matches class)” value (shortened to “HA: hallucinogen”) was “+ (LOQ ≤ + <5%)”. The “MS: mood stabilizer (probability that behavioral signature matches class)” value (from here on “MS: mood stabilizer”) was “+ (LOQ ≤ + <5%)”, the “PS: anti-psychotic (probability that behavioral signature matches class)” value (“PS: anti-psychotic” below) was “+ (LOQ ≤ + <5%)” and the “SD: sedative hypnotic (probability that behavioral signature matches class)” value (from here on “SD: sedative hypnotic”) was “+ (LOQ ≤ + <5%)”. The “UN: uncharacterized CNS activity (probability that behavioral signature matches class)” value (from here on “UN: uncharacterized CNS activity”) was “+ (LOQ ≤ + <5%)” and the “XG: anxiogenic (probability that behavioral signature matches class)” value (“XG: anxiogenic” for short) was “+ (LOQ ≤ + <5%)”. `Fc1ccc2c(c1)CCO[C@@H]2[C@H]1CCN1` [Compound I-91, (R)-2-((S)-6-fluoroisochroman-1-yl)azetidine] was tested, and the “AD: ADHD” value was “+ (LOQ ≤ + <5%)”, the “AG: analgesic” value was “++ (5% ≤ ++ <25%)” and the “AX: anxiolytic” value was “++ (5% ≤ ++ <25%)”. The “CE: cognitive enhancer” value was “++ (5% ≤ ++ <25%)”, the “DP: anti-depressant” value was “++ (5% ≤ ++ <25%)” and the “HA: hallucinogen” value was “+ (LOQ ≤ + <5%)”. For the same compound, the “MS: mood stabilizer” value was “+ (LOQ ≤ + <5%)”, the “PS: anti-psychotic” value was “+++ (25% ≤ +++ <50%)” and the “SD: sedative hypnotic” value was “++ (5% ≤ ++ <25%)”. The “UN: uncharacterized CNS activity” value was “++ (5% ≤ ++ <25%)” and the “XG: anxiogenic” value was “+ (LOQ ≤ + <5%)”. With `c1ccc2c(c1)CCCO[C@H]2[C@@H]1CCCN1` [Compound I-98, (S)-2-((R)-1,3,4,5-tetrahydrobenzo[c]oxepin-1-yl)pyrrolidine] the “AD: ADHD” value was “+ (LOQ ≤ + <5%)”, the “AG: analgesic” value was “+ (LOQ ≤ + <5%)” and the “AX: anxiolytic” value was “++ (5% ≤ ++ <25%)”. The “CE: cognitive enhancer” value was “+ (LOQ ≤ + <5%)”, the “DP: anti-depressant” value was “+++ (25% ≤ +++ <50%)” and the “HA: hallucinogen” value was “+ (LOQ ≤ + <5%)”. For the same compound, the “MS: mood stabilizer” value was “++ (5% ≤ ++ <25%)”, the “PS: anti-psychotic” value was “+++ (25% ≤ +++ <50%)” and the “SD: sedative hypnotic” value was “++ (5% ≤ ++ <25%)”. The “UN: uncharacterized CNS activity” value was “+ (LOQ ≤ + <5%)” and the “XG: anxiogenic” value was “+ (LOQ ≤ + <5%)”. For `c1cc2c(c3c1CCO[C@H]3[C@@H]1CCCN1)OCO2` [Compound I-52, (S)-2-((R)-7,9-dihydro-6H-[1,3]dioxolo[4,5-h]isochromen-9-yl)pyrrolidine], the “AD: ADHD” value was “+ (LOQ ≤ + <5%)”, the “AG: analgesic” value was “++ (5% ≤ ++ <25%)” and the “AX: anxiolytic” value was “++++ (50% ≤ ++++)”. For the same compound, the “CE: cognitive enhancer” value was “++ (5% ≤ ++ <25%)”, the “DP: anti-depressant” value was “++ (5% ≤ ++ <25%)” and the “HA: hallucinogen” value was “+ (LOQ ≤ + <5%)”. For the same compound, the “MS: mood stabilizer” value was “+ (LOQ ≤ + <5%)”, the “PS: anti-psychotic” value was “++ (5% ≤ ++ <25%)” and the “SD: sedative hypnotic” value was “+ (LOQ ≤ + <5%)”. For the same compound, the “UN: uncharacterized CNS activity” value was “+++ (25% ≤ +++ <50%)” and the “XG: anxiogenic” value was “+ (LOQ ≤ + <5%)”. `c1c2c(cc3c1OCO3)[C@H]([C@@H]1CCCN1)OCC2` [Compound I-54, (S)-2-((R)-7,8-dihydro-5H-[1,3]dioxolo[4,5-g]isochromen-5-yl)pyrrolidine] was tested, and the “AD: ADHD” value was “+ (LOQ ≤ + <5%)”, the “AG: analgesic” value was “++ (5% ≤ ++ <25%)” and the “AX: anxiolytic” value was “+++ (25% ≤ +++ <50%)”. The “CE: cognitive enhancer” value was “++ (5% ≤ ++ <25%)”, the “DP: anti-depressant” value was “+++ (25% ≤ +++ <50%)” and the “HA: hallucinogen” value was “+ (LOQ ≤ + <5%)”. The “MS: mood stabilizer” value was “++ (5% ≤ ++ <25%)”, the “PS: anti-psychotic” value was “++ (5% ≤ ++ <25%)” and the “SD: sedative hypnotic” value was “+ (LOQ ≤ + <5%)”. For the same compound, the “UN: uncharacterized CNS activity” value was “+ (LOQ ≤ + <5%)” and the “XG: anxiogenic” value was “+ (LOQ ≤ + <5%)”. `N#Cc1ccc2c(c1)CCO[C@H]2[C@@H]1CCCN1` [Compound I-44, (R)-1-((S)-pyrrolidin-2-yl)isochroman-6-carbonitrile] was tested, and the “AD: ADHD” value was “+ (LOQ ≤ + <5%)”, the “AG: analgesic” value was “++ (5% ≤ ++ <25%)” and the “AX: anxiolytic” value was “+++ (25% ≤ +++ <50%)”. The “CE: cognitive enhancer” value was “++ (5% ≤ ++ <25%)”, the “DP: anti-depressant” value was “++ (5% ≤ ++ <25%)” and the “HA: hallucinogen” value was “+ (LOQ ≤ + <5%)”. For the same compound, the “MS: mood stabilizer” value was “++ (5% ≤ ++ <25%)”, the “PS: anti-psychotic” value was “+++ (25% ≤ +++ <50%)” and the “SD: sedative hypnotic” value was “+ (LOQ ≤ + <5%)”. For the same compound, the “UN: uncharacterized CNS activity” value was “+ (LOQ ≤ + <5%)” and the “XG: anxiogenic” value was “+ (LOQ ≤ + <5%)”. With `c1ccc2c(c1)CCO[C@@H]2[C@H]1CCCN1` [Compound I-20, (R)-2-((S)-isochroman-1-yl)pyrrolidine] the “AD: ADHD” value was “+ (LOQ ≤ + <5%)”, the “AG: analgesic” value was “++ (5% ≤ ++ <25%)” and the “AX: anxiolytic” value was “++ (5% ≤ ++ <25%)”. The “CE: cognitive enhancer” value was “++ (5% ≤ ++ <25%)”, the “DP: anti-depressant” value was “++ (5% ≤ ++ <25%)” and the “HA: hallucinogen” value was “+ (LOQ ≤ + <5%)”. The “MS: mood stabilizer” value was “++ (5% ≤ ++ <25%)”, the “PS: anti-psychotic” value was “++++ (50% ≤ ++++)” and the “SD: sedative hypnotic” value was “++ (5% ≤ ++ <25%)”. For the same compound, the “UN: uncharacterized CNS activity” value was “+++ (25% ≤ +++ <50%)” and the “XG: anxiogenic” value was “+ (LOQ ≤ + <5%)”. With `c1ccc2c(c1)CCO[C@@H]2[C@@H]1CCN1` [Compound I-79, (S)-2-((S)-isochroman-1-yl)azetidine] the “AD: ADHD” value was “++ (5% ≤ ++ <25%)”, the “AG: analgesic” value was “++ (5% ≤ ++ <25%)” and the “AX: anxiolytic” value was “+++ (25% ≤ +++ <50%)”. For the same compound, the “CE: cognitive enhancer” value was “++ (5% ≤ ++ <25%)”, the “DP: anti-depressant” value was “++ (5% ≤ ++ <25%)” and the “HA: hallucinogen” value was “+ (LOQ ≤ + <5%)”. For the same compound, the “MS: mood stabilizer” value was “++ (5% ≤ ++ <25%)”, the “PS: anti-psychotic” value was “+++ (25% ≤ +++ <50%)” and the “SD: sedative hypnotic” value was “+ (LOQ ≤ + <5%)”. For the same compound, the “UN: uncharacterized CNS activity” value was “+ (LOQ ≤ + <5%)” and the “XG: anxiogenic” value was “+ (LOQ ≤ + <5%)”. For `OC1CO[C@@H]([C@@H]2CCCN2)c2ccc(F)cc21` (stereo partly drawn) [Compound I-134, (1R)-6-fluoro-1-((S)-pyrrolidin-2-yl)isochroman-4-ol], the “AD: ADHD” value was “+ (LOQ ≤ + <5%)”, the “AG: analgesic” value was “+ (LOQ ≤ + <5%)” and the “AX: anxiolytic” value was “++ (5% ≤ ++ <25%)”. The “CE: cognitive enhancer” value was “+ (LOQ ≤ + <5%)”, the “DP: anti-depressant” value was “+ (LOQ ≤ + <5%)” and the “HA: hallucinogen” value was “+ (LOQ ≤ + <5%)”. The “MS: mood stabilizer” value was “+ (LOQ ≤ + <5%)”, the “PS: anti-psychotic” value was “+ (LOQ ≤ + <5%)” and the “SD: sedative hypnotic” value was “+ (LOQ ≤ + <5%)”. For the same compound, the “UN: uncharacterized CNS activity” value was “+ (LOQ ≤ + <5%)” and the “XG: anxiogenic” value was “+ (LOQ ≤ + <5%)”. In the case of `Fc1ccc2c(c1)[C@@H]([C@H]1CCCN1)OCCC2` [Compound I-108, (R)-2-((S)-8-fluoro-1,3,4,5-tetrahydrobenzo[c]oxepin-1-yl)pyrrolidine], the “AD: ADHD” value is reported as “+ (LOQ ≤ + <5%)”, the “AG: analgesic” value is reported as “++ (5% ≤ ++ <25%)” and the “AX: anxiolytic” value is reported as “++ (5% ≤ ++ <25%)”. For the same compound, the “CE: cognitive enhancer” value was “++ (5% ≤ ++ <25%)”, the “DP: anti-depressant” value was “++ (5% ≤ ++ <25%)” and the “HA: hallucinogen” value was “+ (LOQ ≤ + <5%)”. For the same compound, the “MS: mood stabilizer” value was “+ (LOQ ≤ + <5%)”, the “PS: anti-psychotic” value was “+++ (25% ≤ +++ <50%)” and the “SD: sedative hypnotic” value was “++ (5% ≤ ++ <25%)”. For the same compound, the “UN: uncharacterized CNS activity” value was “++ (5% ≤ ++ <25%)” and the “XG: anxiogenic” value was “+ (LOQ ≤ + <5%)”. For `Fc1cccc2c1CCO[C@H]2[C@H]1CCN1` [Compound I-95, (R)-2-((R)-5-fluoroisochroman-1-yl)azetidine], the “AD: ADHD” value was “+ (LOQ ≤ + <5%)”, the “AG: analgesic” value was “+++ (25% ≤ +++ <50%)” and the “AX: anxiolytic” value was “++ (5% ≤ ++ <25%)”. For the same compound, the “CE: cognitive enhancer” value was “++ (5% ≤ ++ <25%)”, the “DP: anti-depressant” value was “++ (5% ≤ ++ <25%)” and the “HA: hallucinogen” value was “+ (LOQ ≤ + <5%)”. For the same compound, the “MS: mood stabilizer” value was “+ (LOQ ≤ + <5%)”, the “PS: anti-psychotic” value was “++ (5% ≤ ++ <25%)” and the “SD: sedative hypnotic” value was “+ (LOQ ≤ + <5%)”. For the same compound, the “UN: uncharacterized CNS activity” value was “+ (LOQ ≤ + <5%)” and the “XG: anxiogenic” value was “+ (LOQ ≤ + <5%)”.
